Data from PubChem BioAssay (NCI).
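1) Cells in 96-well plates. 2) Compound, 48 h, 5 concentrations. 3) Linear interpolation between surrounding doses. 4) Unreached endpoint = highest concentration. GI50: concentration for 50% inhibition of growth. TGI denotes the concentration required for complete inhibition of growth.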

Columns and labels:
Assay in all cases: inhibition of tumour cell growth, NCI panel, 48 h
UACC-62 melanoma = tested on: UACC-62 melanoma
SNB-75 CNS = tested on: SNB-75 CNS
RXF 393 renal = tested on: RXF 393 renal
HOP-62 NSCLC = tested on: HOP-62 NSCLC
U251 CNS = tested on: U251 CNS
HCT-15 colon = tested on: HCT-15 colon
K-562 leukemia = tested on: K-562 leukemia
SK-MEL-2 melanoma = tested on: SK-MEL-2 melanoma
SF-539 CNS = tested on: SF-539 CNS
HS 578T breast = tested on: HS 578T breast

Compound CCOC(=O)C1(Cc2ccc3ccccc3c2)CCCCCN1 (configuration not stated) has a TGI (UACC-62 melanoma) greater than 100 µM, a TGI (SNB-75 CNS) of 30.2 µM and a TGI (RXF 393 renal) of 83.2 µM. For the same compound, the TGI (HOP-62 NSCLC) was greater than 100 µM, the TGI (U251 CNS) was greater than 100 µM and the TGI (HCT-15 colon) was 41.4 µM. The TGI (K-562 leukemia) was 68.7 µM.
Cc1cc(C)c2[s+]snc2c1 was tested, and the TGI (UACC-62 melanoma) was greater than 100 µM, the TGI (SNB-75 CNS) was greater than 100 µM and the TGI (RXF 393 renal) was 91.6 µM. The TGI (HOP-62 NSCLC) was greater than 100 µM, the TGI (SK-MEL-2 melanoma) was greater than 100 µM and the TGI (U251 CNS) was greater than 100 µM. It also gave a TGI (K-562 leukemia) greater than 100 µM and a TGI (SF-539 CNS) greater than 100 µM.
Work on O=C(Nc1ccc(S(=O)(=O)NC2CCCCCC2)cc1)C(c1ccccc1)S(=O)(=O)c1ccc(F)cc1 (configuration not stated) yielded a GI50 (UACC-62 melanoma) of 0.137 µM, a TGI (UACC-62 melanoma) of 0.69 µM and a GI50 (SNB-75 CNS) of 0.508 µM. It also gave a TGI (SNB-75 CNS) of 2.17 µM, a GI50 (RXF 393 renal) of 0.217 µM and a TGI (RXF 393 renal) of 0.562 µM. For the same compound, the GI50 (HOP-62 NSCLC) was 0.97 µM, the TGI (HOP-62 NSCLC) was 3.86 µM and the GI50 (SK-MEL-2 melanoma) was 0.449 µM. The TGI (SK-MEL-2 melanoma) was 2.08 µM, the GI50 (U251 CNS) was 0.51 µM and the TGI (U251 CNS) was 3.57 µM. It also gave a GI50 (HCT-15 colon) of 0.182 µM, a TGI (HCT-15 colon) of 2.08 µM and a GI50 (HS 578T breast) of 0.588 µM. The TGI (HS 578T breast) was 3.05 µM, the GI50 (SF-539 CNS) was 0.389 µM and the TGI (SF-539 CNS) was 1.88 µM.
O=C1c2cccc3cc([N+](=O)[O-])cc(c23)C(=O)N1O showed a TGI (UACC-62 melanoma) of 81.4 µM, a TGI (RXF 393 renal) greater than 100 µM and a TGI (HOP-62 NSCLC) greater than 100 µM. The TGI (SK-MEL-2 melanoma) was greater than 100 µM, the TGI (U251 CNS) was greater than 100 µM and the TGI (HCT-15 colon) was greater than 100 µM. It also gave a TGI (HS 578T breast) greater than 100 µM and a TGI (K-562 leukemia) greater than 100 µM.
Work on C[N+]1=c2c3cccc4cccc(c(=O)n2CCC1)c43 yielded a TGI (UACC-62 melanoma) of 34.1 µM, a TGI (SNB-75 CNS) of 78.7 µM and a TGI (RXF 393 renal) of 60.8 µM. It also gave a TGI (HOP-62 NSCLC) of 86.2 µM, a TGI (SK-MEL-2 melanoma) of 35.3 µM and a TGI (U251 CNS) greater than 100 µM. For the same compound, the TGI (HCT-15 colon) was greater than 100 µM, the TGI (K-562 leukemia) was 32 µM and the TGI (SF-539 CNS) was greater than 100 µM.
With CC1=NN(c2ccccc2)C(=O)C1N=Nc1ccc(Br)c(C)c1 (configuration not stated) the TGI (UACC-62 melanoma) was greater than 100 µM, the TGI (SNB-75 CNS) was greater than 100 µM and the TGI (RXF 393 renal) was greater than 100 µM. The TGI (HOP-62 NSCLC) was greater than 100 µM, the TGI (SK-MEL-2 melanoma) was greater than 100 µM and the TGI (U251 CNS) was greater than 100 µM. It also gave a TGI (HCT-15 colon) greater than 100 µM, a TGI (K-562 leukemia) greater than 100 µM and a TGI (SF-539 CNS) greater than 100 µM.
For Nn1c(N=Nc2c(O)[nH]c3ccccc23)n[nH]c1=S, the TGI (UACC-62 melanoma) was greater than 100 µM, the TGI (RXF 393 renal) was 95.1 µM and the TGI (HOP-62 NSCLC) was greater than 100 µM. The TGI (SK-MEL-2 melanoma) was greater than 100 µM, the TGI (U251 CNS) was greater than 100 µM and the TGI (HCT-15 colon) was greater than 100 µM. The TGI (K-562 leukemia) was greater than 100 µM and the TGI (SF-539 CNS) was greater than 100 µM.
Compound CCN(CC)c1ccc2nc3c4ccccc4c(=NC(=O)c4ccccc4-c4c5ccc(N(CC)CC)cc5[o+]c5cc(N(CC)CC)ccc45)cc-3oc2c1 has a GI50 (UACC-62 melanoma) of 5.73 µM, a TGI (UACC-62 melanoma) of 17.9 µM and a GI50 (SNB-75 CNS) of 8.27 µM. For the same compound, the TGI (SNB-75 CNS) was 23.5 µM, the GI50 (HOP-62 NSCLC) was 1.81 µM and the TGI (HOP-62 NSCLC) was 4.53 µM. The GI50 (SK-MEL-2 melanoma) was 3.4 µM, the TGI (SK-MEL-2 melanoma) was 9.15 µM and the GI50 (U251 CNS) was 2.33 µM. For the same compound, the TGI (U251 CNS) was 8.83 µM, the GI50 (HCT-15 colon) was 1.42 µM and the TGI (HCT-15 colon) was 3.9 µM. It also gave a TGI (K-562 leukemia) greater than 100 µM, a GI50 (SF-539 CNS) of 3.24 µM and a TGI (SF-539 CNS) of 8.73 µM.
With CP(C)C.[Ag][I] the TGI (UACC-62 melanoma) was greater than 100 µM, the TGI (SNB-75 CNS) was 46.5 µM and the TGI (RXF 393 renal) was greater than 100 µM. The TGI (HOP-62 NSCLC) was greater than 100 µM, the TGI (SK-MEL-2 melanoma) was greater than 100 µM and the TGI (U251 CNS) was greater than 100 µM. It also gave a TGI (HCT-15 colon) greater than 100 µM, a TGI (K-562 leukemia) greater than 100 µM and a TGI (SF-539 CNS) greater than 100 µM.
NNC(=S)N/N=C/C(Cl)=C(\Cl)C(=O)O was tested, and the TGI (UACC-62 melanoma) was greater than 100 µM, the TGI (SNB-75 CNS) was greater than 100 µM and the TGI (RXF 393 renal) was greater than 100 µM. The TGI (SK-MEL-2 melanoma) was greater than 100 µM, the TGI (U251 CNS) was greater than 100 µM and the TGI (HCT-15 colon) was greater than 100 µM. It also gave a TGI (K-562 leukemia) greater than 100 µM and a TGI (SF-539 CNS) greater than 100 µM.
With CC12C(=O)N(CCN)C(=O)C1C1c3ccccc3C2c2ccccc21 (configuration not stated) the TGI (UACC-62 melanoma) was greater than 100 µM, the TGI (SNB-75 CNS) was greater than 100 µM and the TGI (HOP-62 NSCLC) was greater than 100 µM. It also gave a TGI (SK-MEL-2 melanoma) greater than 100 µM, a TGI (U251 CNS) greater than 100 µM and a TGI (HCT-15 colon) greater than 100 µM. For the same compound, the TGI (K-562 leukemia) was greater than 100 µM and the TGI (SF-539 CNS) was greater than 100 µM.
